Experimental data taken from US20150223463A1, “SPIROCYCLIC ISOXAZOLINE DERIVATIVES FOR TREATMENT OF SEA LICE” (Zoetis LLC, priority 2012, published 2015).

Test system: Lepeophtheirus salmonis (sea lice)
Assay: Sea lice bioassay, 24 hours exposure to test compound
Type: in vivo
Settings: predominantly pre-adult and adult stage, generally chemical resistant strain

Emamectin was tested, and the “Adult Females (EC50)” value (adult female sea lice) was 65 ppb and the “Adult Males (EC50)” value (adult male sea lice) was 202 ppb.
